Data published in US11578055B2, “Triazacyclododecansulfonamide (“TCD”)-based protein secretion inhibitors” (KEZAR LIFE SCIENCES, priority 2018, dated 2023).
pEC50, pIC50: −log10 of the molar value.

What was measured:
[1] = In Vitro Microsome Stability Assay (human); format: in vitro ADME; conditions: human liver microsomes, 30 min w/ NADPH
Outline: (§1)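 The value reported is the percentage of parent left after 30 min, calculated from analyte/IS peak-area ratios relative to time zero by LC-MS/MS. Incubations ran at 37° C in 0.1 M potassium phosphate with NADPH and microsomes (stock 20 mg/mL), with compound added from a 0.25 mM DMSO stock. Acetonitrile containing IS stopped the reactions.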

[2] = In Vitro Microsome Stability Assay (monkey); format: in vitro ADME; conditions: monkey liver microsomes, 30 min w/ NADPH
Outline: as §1

[3] = system: multiple myeloma cell line NCl-H929; experiment: H929 Cell Viability Assay; format: cell-based, human; conditions: Homo sapiens, NCI-H929, 48 h, H929, Celltiter-Glo
Outline: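 Viability was determined by CellTiter-Glo luminescence after a 48 h, 37 °C exposure of NCI-H929 cells to serial compound dilutions in medium containing 10% FBS. Where stereochemistry is not shown, values refer to a mix of stereoisomers.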

[4] = system: multiple myeloma cell line U266B1; experiment: U266 Cell Viability Assay; format: cell-based, human; conditions: Homo sapiens, U-266; 48 hr, U266, Celltiter-Glo
Outline: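 Viability was measured by CellTiter-Glo luminescence after 48 h compound exposure at 37° C, 5% CO2. The cells were U266B1 multiple myeloma cells grown in RPMI 1640 plus 10% FBS. Where stereochemistry is not shown, values apply to the stereoisomer mixture.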

[5] = system: full length IL-2 (amino acids 1-153) fused to Gaussia Luciferase; experiment: Dox Induced IL2-FL-Gluc Assay; format: cell-based; conditions: 24 hr, Dox inducible, 293FRT/TO cells; read-out: 24 hr Dox Inducible IL2FLGluc 293FRT/TO: Mean IC50
Outline: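 Compounds in DMSO/media with doxycycline were added to cells plated the previous day and incubated at 37° C, 5% CO2. Cells: stable Flp-In 293 T-REx line, Dox-regulated expression of IL-2 (aa 1-153) fused at its C-terminus to Gaussia luciferase.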

[6] = system: HER3 signal sequence plus 4 amino acids fused to Gaussia Luciferase (HER3-ss+4aa/Gaussia Luciferase); experiment: Dox Induced HER3-ss-Gluc Assay; format: cell-based; conditions: 24 hr, doxycycline induced, Flp-In 293 T-REx cells; read-out: 24 hr Dox Inducible Her3(ss + 4) Gluc 293FRT/TO: Mean 1050
Description: FIp-In 293 T-REx™ cells were transfected with pcDNA™5/FRT/TO plasmid inserted with cDNA encoding Gaussia Luciferase fused to the 3′ end of cDNA encoding HER3 signal sequence plus 4 amino acids (N-[…]-C) (SEQ ID NO: 2). Transfected cells were selected for resistance to the selectable markers Hygromycin and Blasticidin to create a stable cell line that contained the HER3-ss+4aa/Gaussia Luciferase cDNA insert whose expression was regulated under the T-REx™ system. The day before assay, cells were trypsinized and plated in 384-well tissue culture plates. The next day, compound dilutions in DMSO/media containing doxycycline were added to the wells and incubated at 37° C., 5% CO2.
For chemical structures that include one or more stereoisomers, but are illustrated without indicating stereochemistry, the assay data refers to a mixture of stereoisomers.

[7] = system: full length TNFα (amino acids 1-233) fused to Gaussia Luciferase; experiment: Dox Induced TNFα-FL-Gluc Assay; format: cell-based; conditions: 24 hr, Dox inducible, 293FRT/TO cells; read-out: 24 hr Dox Inducible TNFaFLGluc 293FRT/TO: Mean IC50
Outline: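 Compounds diluted in DMSO/medium with doxycycline were incubated at 37° C, 5% CO2 with 293 T-REx cells stably carrying a Tet-regulated TNFα(1-233)-Gaussia luciferase construct. Data for structures drawn without stereochemistry refer to stereoisomer mixtures.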

[8] = In Vitro Microsome Stability Assay (mouse); format: in vitro ADME; conditions: mouse liver microsomes, 30 min w/ NADPH
Outline: as §1

[9] = In Vitro Microsome Stability Assay (rat); format: in vitro ADME; conditions: rat liver microsomes, 30 min w/ NADPH
Outline: as §1

[10] = system: PD1 signal sequence plus 10 amino acids fused to Gaussia Luciferase (PD1-ss+10aa/Gaussia Luciferase); experiment: Dox Induced PD1-ss-Gluc Assay; format: cell-based; conditions: 24 hr, Dox inducible, 293FRT/TO cells; read-out: 24 hr Dox Inducible PD1ssGluc 293FRT/TO: Mean IC50
Outline: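 Compound dilutions in DMSO/media containing doxycycline were applied to a stable, inducible 293 T-REx line carrying the luciferase fusion, then incubated at 37 °C, 5% CO2. Where stereochemistry is not drawn, values relate to isomer mixtures.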

| SMILES | Liver Microsome Stability-% Left after 30 min w/ NADPH (%) Human [1] [%] | Liver Microsome Stability-% Left after 30 min w/ NADPH (%) Monkey [2] [%] | pEC50 [3] | pEC50 [4] | pIC50 [5] | pIC50 [6] | pIC50 [7] | Liver Microsome Stability-% Left after 30 min w/ NADPH (%) Mouse [8] [%] | Liver Microsome Stability-% Left after 30 min w/ NADPH (%) Rat [9] [%] | pIC50 [10] |
| --- | --- | --- | --- | --- | --- | --- | --- | --- | --- | --- |
| COc1cc(F)cc(N2[C@H](C)CN(S(=O)(=O)N3CCCN(CC4CCCCC4)CCCN(S(=O)(=O)c4ccc(N(C)C)cc4)C[C@H](C)C3)C[C@H]2C)c1 [A200] | 78.1 | 73.9 | 6.36 | < 4.60 | 7.55 | 7.54 | 6.55 | 71.9 | 83.1 | 7.95 |
| CCc1ccc(CNS(=O)(=O)N2CCCN(CC3CCCCC3)CCCN(S(=O)(=O)c3ccc(N(C)C)cc3)C[C@H](C)C2)cc1 [A189, (3S)-9-(cyclohexylmethyl)-5-[4-(dimethylamino)benzenesulfonyl]-N-[(4-ethylpheny)methyl]-3-methyl-1,5,9-triazacyclododecane-1-sulfonamide] | 0.06 | 0.01 | 4.97 | < 4.60 | 5.87 | 6.02 | 5.09 | 0.14 | 0.07 | 6.29 |
| CC(=O)N(C)c1ccc(CNS(=O)(=O)N2CCCN(CC3CCCCC3)CCCN(S(=O)(=O)c3ccc(N(C)C)cc3)C[C@H](C)C2)cc1 [A192, N-{4-[({[(3S)-9-(cyclohexylmethyl)-5-[4-(dimethylamino)benzenesulfonyl]-3-methyl-1,5,9-triazacyclododecan-1-yl]sulfonyl}amino)methyl]phenyl}-N-methylacetamide] | 0.02 | 0.10 | 5.03 | < 4.60 | 5.63 | 5.77 | < 4.60 | 0.18 | 0.08 | 5.94 |
| CC[C@H]1CN(S(=O)(=O)c2ccc(N(C)C)cc2)CCCN(CC2CCCCC2)CCCN(S(=O)(=O)N2CCc3cc(Cl)ccc3C2)C1 [A182] | 53.7 | 41.5 | < 4.60 | < 4.60 | 6.59 | 6.69 | 5.71 | 61.7 | 41.9 | 7.10 |
| COc1ccccc1[C@@H]1CCCN(S(=O)(=O)N2CCCN(CC3CCCCC3)CCCN(S(=O)(=O)c3ccc(N(C)C)cc3)C[C@H](C)C2)C1 [A210] | 47.4 | 55.4 | < 4.60 | < 4.60 | 6.35 | 6.47 | < 4.60 | 76.0 | 54.6 | 6.69 |
| COc1cc(F)cc(N2[C@H](C)CN(S(=O)(=O)N3CCCN(CC4CCCCC4)CCCN(S(=O)(=O)c4ccc(N(C)C)cc4)C[C@H](C)C3)C[C@@H]2C)c1 [A197] | 70.7 | 92.8 | 5.38 | < 4.60 | 7.02 | 7.11 | 6.18 | 65.4 | 76.6 | 7.47 |

Next, values leading:

| Liver Microsome Stability-% Left after 30 min w/ NADPH (%) Human [1] [%] | Liver Microsome Stability-% Left after 30 min w/ NADPH (%) Monkey [2] [%] | pEC50 [3] | pEC50 [4] | pIC50 [5] | pIC50 [6] | pIC50 [7] | Liver Microsome Stability-% Left after 30 min w/ NADPH (%) Mouse [8] [%] | Liver Microsome Stability-% Left after 30 min w/ NADPH (%) Rat [9] [%] | pIC50 [10] | SMILES |
| --- | --- | --- | --- | --- | --- | --- | --- | --- | --- | --- |
| 32.8 | 26.5 | < 4.60 | < 4.60 | 6.55 | 6.68 | 5.15 | 39.1 | 35.4 | 6.93 | COc1cccc(N2CCN(S(=O)(=O)N3CCCN(CC4CCCCC4)CCCN(S(=O)(=O)c4ccc(N(C)C)cc4)C[C@H](C)C3)CC2)c1 [A201, 4-{[(3S)-9-(cyclohexylmethyl)-5-{[4-(3-methoxyphenyl)piperazin-1-yl]sulfonyl}-3-methyl-1,5,9-triazacyclododecan-1-yl]sulfonyl}-N,N-dimethylaniline] |
| 13.3 | 38.3 | 5.54 | < 4.60 | 6.76 | 6.89 | 5.69 | 55.0 | 50.8 | 7.25 | COc1ccc(N2CCN(S(=O)(=O)N3CCCN(CC4CCCCC4)CCCN(S(=O)(=O)c4ccc(N(C)C)cc4)C[C@H](C)C3)CC2)cc1F [A202, 4-{[(3S)-9-(cyclohexylmethyl)-5-{[4-(3-fluoro-4-methoxyphenyl)piperazin-1-yl]sulfonyl}-3-methyl-1,5,9-triazacyclododecan-1-yl]sulfonyl}-N,N-dimethylaniline] |
| 53.6 | 32.8 | < 4.60 | < 4.60 | 6.18 | 6.42 | 4.95 | 58.5 | 63.3 | 6.68 | COc1cc(F)cc(N2CCN(S(=O)(=O)N3CCCN(CC4CCCCC4)CCCN(S(=O)(=O)c4ccc(N(C)C)cc4)CC4(CC4)C3)C[C@H]2C)c1 [A195] |
| 62.7 | 63.0 | 6.98 | < 4.60 | 7.97 | 7.75 | 6.65 | 84.3 | 98.8 | 8.10 | COc1cc(F)ccc1N1CCN(S(=O)(=O)N2CCCN([C@@H](C)C3CCCCC3)CCCN(S(=O)(=O)c3ccc(N(C)C)cc3)C[C@H](C)C2)C[C@H]1C [A207, 4-{[(3S)-9-[(1 S)-1-cyclohexylethyl]-5-{[(3 R)-4-(4-fluoro-2-methoxyphenyl)-3-methylpiperazin-1-yl]sulfonyl}-3-methyl-1,5,9-triazacyclododecan-1-yl]sulfonyl}-N,N-dimethylaniline] |
| 39.2 | 65.1 | 5.93 | < 4.60 | 7.27 | 7.36 | 6.43 | 68.2 | 61.4 | 7.73 | C[C@H]1CN(S(=O)(=O)c2ccc(N(C)C)cc2)CCCN(CC2CCCCC2)CCCN(S(=O)(=O)N2CCN(c3ccccc3Cl)CC2)C1 [A198, 4-{[(3S)-5-{[4-(2-chlorophenyl)piperazin-1-yl]sulfonyl}-9-(cyclohexylmethyl)-3-methyl-1,5,9-triazacyclododecan-1-yl]sulfonyl}-N,N-dimethylaniline] |
